Consider three compounds from PMC11084427 (2024).

For test [1], the system named is poly(dAdT)2 (DNA, polymer) AT. Nature of the test: UV melting, 260 nm. To be noted: Na+ (sodium cacodylate, I = 0.05 M); pH 7.0; compound/polynucleotide r = 0.3; per base.
In test [2] the test system is poly A-poly U (pApU) (RNA, polymer) A/U. Nature of the test: UV melting, 260 nm. The conditions noted are these: Na+ (sodium cacodylate, I = 0.05 M); pH 7.0; compound/polynucleotide r = 0.3; per base.
For test [3], the system named is poly dA-poly dT (pdApdT) (DNA, polymer) A/T. Nature of the test: UV melting, 260 nm. The conditions noted are these: Na+ (sodium cacodylate, I = 0.05 M), pH 7.0, per base.
For test [4], the system named is poly(dAdT)2 (DNA, polymer) AT. Nature of the test: fluorescence titration, Scatchard. The conditions noted are these: Na+ (sodium cacodylate, I = 0.05 M); pH 7.0, 25 °C; per phosphate; per base.
In test [5] the test system is poly(dGdC)2 (DNA, polymer) GC. Nature of the test: fluorescence titration, Scatchard. To be noted: Na+ (sodium cacodylate, I = 0.05 M); pH 7.0, 25 °C; per phosphate; per base.
Test [6] has as its system poly A-poly U (pApU) (RNA, polymer) A/U. Nature of the test: fluorescence titration, Scatchard. The conditions noted are these: Na+ (sodium cacodylate, I = 0.05 M), per phosphate, per base.
The test system of test [7] is dAdTdT (ATT) triplex (DNA, polymer) A/T/T. Nature of the test: UV melting, 260 nm. To be noted: Na+ (sodium cacodylate with NaCl, I = 0.1 M); pH 7.0, 1 mM EDTA; 7.5 μM compound, r = 0.3; transition Tm3→1 (third strand); per base.
In test [8] the test system is poly dA-poly dT (pdApdT) (DNA, polymer) A/T. The test can be described thus: fluorescence titration, Scatchard. To be noted: Na+ (sodium cacodylate, I = 0.05 M); pH 7.0, 25 °C; per phosphate; per base.
Test [9] relates to dAdTdT (ATT) triplex (DNA, polymer) A/T/T. Nature of the test: fluorescence titration, Scatchard. The conditions noted are these: Na+ (sodium cacodylate, I = 0.05 M); pH 7.0, 25 °C; per phosphate; per base.
The mark [10] stands for this setting: compound/polynucleotide r = 0.3.

One may read the ΔTm as the shift of the melting midpoint relative to a reference. Consider `COC(=O)[C@H](Cc1ccc2c(c1)c(C)nc1ccccc12)NC(=O)CNC(=O)CNC(=O)c1ccc(C(=O)NC(=N)N)[nH]1`, for which the ΔTm was 1.2 ± 0.5 °C in test [1], 0 ± 0.5 °C in test [2] and 0.7 ± 0.5 °C in test [3] (setting [10]).
Regarding `COC(=O)[C@H](Cc1ccc2c(c1)c(C)nc1ccccc12)NC(=O)CNC(=O)[C@H](CCCCN)NC(=O)c1ccc(C(=O)NC(=N)N)[nH]1`, the ΔTm turned out to be 2.6 ± 0.5 °C in test [1], 0 ± 0.5 °C in [2] and 1.5 ± 0.5 °C in [3] (setting [10]). In addition, the “log Ka” value came out at 6.7 in test [4]; 6.1 in [5]; 5.5 in test [6] (pH 5.0, 25 °C, not determinable at pH 7.0).
Regarding `COC(=O)[C@H](Cc1ccc2c(c1)c(C)nc1ccccc12)NC(=O)[C@H](CCCCN)NC(=O)CNC(=O)c1ccc(C(=O)NC(=N)N)[nH]1`, the ΔTm in test [1] came to 1.0 ± 0.5 °C; in [2] it was 2.5 ± 0.5 °C; in [3] (r = 0.3, biphasic, second transition), 2.1 ± 0.5 °C; in test [7], 1.1 ± 0.5 °C. Also, the “log Ka” value in test [4] is on record as 6.7; in [5], 5.8; in [6] (pH 7.0, 25 °C), 7.1; in test [8], 6.6; in test [9] it was 7.4.
